Test results reported in US11911406B2, “PH-responsive polymer-drug conjugates for enhanced antibacterial efficacy” (priority 2020, dated 2024).
In brackets after ≈: the same amount, converted by molar mass.

How the values were obtained:
MRSA biofilm = assay: Biofilm inhibition assay (crystal violet); type: cell-based, S. aureus; conditions: 512 μg/mL free streptomycin, 24 h
Description: (§1) Biofilm inhibition assays. Exponentially growing bacteria were inoculated into 96 well plates (1×10^4 cell/well) containing MHB broth with 2% (v/w) glucose, incubated under stationary conditions at 37° C. for one day. After biofilm formation, the media was discarded and the plates were washed with PBS to remove the planktonic bacteria. Fresh NMB broth containing serially diluted free streptomycin or PDC were added to the plates and incubated at 37° C. for another 24 h. The media in each well was then removed, and the plates were washed carefully with PBS for 1 time. The biofilm in each well was fixed with 95% ethanol for 15 min and stained with 0.1% crystal violet for 15 min. After washing with Milli-Q water for three times, 33% v/v acetic acid (100 μL/well) was added to solubilize the crystal violet staining. OD 560 in each well was read to determine the biofilm formation. The biofilm formed as described above was also stained with acridine orange and Cy5 labeled PDC, and monitored by CLSM to observe the PDC penetration.

P. aeruginosa ATCC 27853 = assay: Mouse lung infection model; type: in vivo, ICR mice; conditions: 2 i.v. injections (1 h and 8 h after the infection)
Description: Mouse lung infection model. […] In another experiment of monitoring the mice survival for the lung infection model, the P. aeruginosa infected mice were given 2 treatments (1 h and 8 h after the infection) and their survival was observed using Kaplan-Meier curves (n=5).

E. coli ATCC 25922 [1] = assay: Live/Dead bacterial staining assay (AO/EB); type: cell-based; conditions: 0.5 h and 3 h
Description: Live/Dead bacterial staining assay. Exponentially growing bacteria (E. coli ATCC 25922) were collected by centrifugation at 8000 rpm for 5 min, washed with saline and diluted to OD 600 value of 0.5. The bacterial suspensions were incubated with different treatments at 37° C. for 0.5 h and 3 h, and then washed with saline and stained by acridine orange (10 μg/mL) and ethidium bromide (EB, […]) solution for 15 min. Afterward, the bacteria were collected via centrifugation, washed with saline for 2 times, resuspended in 70% glycerol and spread on glass slides. The live/dead bacteria were observed by a confocal laser scanning microscope (CLSM).

E. coli biofilm = assay: Biofilm inhibition assay (crystal violet); type: cell-based; conditions: 512 μg/mL free streptomycin, 24 h
Description: as §1

P. aeruginosa biofilm = assay: Biofilm inhibition assay (crystal violet); type: cell-based; conditions: 256 μg/mL streptomycin
Description: as §1

[2] = tested on: P. aeruginosa (ATCC 27853); assay: MIC, broth microdilution; type: cell-based; conditions: 24 h, no pH given
Description: (§2) Bacterial strains. S. aureus Newman was kindly provided by Prof Douglas Weibel; E. coli ATCC25922, S. aureus ATCC 33591 and P. aeruginosa ATCC 27853 were kindly donated by Prof. David Andes. E. coli DH5a was purchased from Thermo Fisher. The bacteria above were grown in Mueller Hinton Broth (MHB) media (Criterion, Santa Maria, Calif., USA). M. smegmatis mc^2155 strain was kindly donated by Prof. Adel M. Talaat, and was grown in Middlebrook 7H9 broth (HiMedia, West Chester, Pa., USA).
(§3) Minimal inhibitory concentration (MIC) measurements. The MIC of the different treatments on various bacteria strains was determined using the broth microdilution method. Briefly, 100 μL of the respective broth media containing serial twofold dilutions of each compound was placed into a 96-well tissue culture plate. Each bacterial strain was taken from an exponentially growing culture and diluted to 5×10^6 CFU/mL. 10 μL of such microbial suspension was inoculated in each well of the plate, resulting in a final bacteria concentration of approximately 5×10^5 CFU/mL. The bacteria were cultured at 37° C. for 24 h and their growth were observed by reading the optical density (OD) at 600 nm. The MIC was determined as the treatment concentration at which no microbial growth was observed. Broth containing microbial cells alone was used as a positive control and broth without bacteria inoculation was used as a negative control. Each test was carried out in 3 replicates.

[3] = tested on: S. aureus (MRSA ATCC33591); assay: MIC, broth microdilution; type: cell-based; conditions: 24 h, no pH given
Description: as §2, §3

M. smegmatis (MC^2 155) = assay: MIC, broth microdilution; type: cell-based; conditions: 24 h, no pH given
Description: as §2, §3

S. aureus (Newman) = assay: MIC, broth microdilution; type: cell-based; conditions: 24 h, no pH given
Description: as §2, §3

E. coli (ATCC 25922) = assay: MIC, broth microdilution; type: cell-based; conditions: 24 h, no pH given
Description: as §2, §3

E. coli (DH5 alpha) = assay: MIC, broth microdilution; type: cell-based; conditions: 24 h, no pH given
Description: as §2, §3

E. coli ATCC 25922 [4] = assay: Evaluation of antibiotic resistance development (serial passaging); type: cell-based; conditions: sub-lethal dose (0.5 MIC)
Description: Evaluation of antibiotic resistance development. E. coli ATCC 25922 was employed to study the drug resistance development under sublethal dose treatments of free streptomycin, cationic polymer or the PDC. During a serial of passages, the MIC of each treatment was measured by the broth microdilution method as described above, and the bacteria were exposed to ½MIC at that particular passage. MIC for each passage was recorded and normalized to that of the first passage to determine the drug resistance enhancement.

[5] = tested on: P. aeruginosa in Raw 264.7 macrophage; assay: Antibacterial activity for intracellular infection; type: cell-based; conditions: Raw 264.7 infected with P. aeruginosa, pH 7.4 and 6.0, 1 day
Description: Antibacterial activity for intracellular infection. The antibacterial activity for intracellular infection was tested following the previous report. Briefly, macrophage Raw 264.7 cells were seeded in 96-well plate at a density of 1×10^4 cell/swell overnight and infected with MRSA or P. aeruginosa at a ratio of 10-20 bacteria per macrophage in FBS free RPMI 1640 medium. After 3 h incubation, the cells were washed and cultured in 1640 medium containing 10% FBS and 50 μg/mL gentamycin for one day to prevent the growth of extracellular bacteria. Then the macrophages were treated with free streptomycin or PDC for another day and lysed with Milli-Q water supplemented with 0.1% Triton-X. The cell lysates were serially diluted and the CFU in each well was determined by plating on MHB agar plates.

human red blood cells = assay: Hemolysis assay; type: cell-based
Description: Hemolysis assay. […] The antibacterial polymer and PDC with different charges were serial diluted with PBS and placed in 96-well plates (100 μL/well). The blood cell suspension (10 μL/well) was added into the wells and incubated at 37° C. for 1 h to allow the complete hemolysis process. […] Following centrifugation at 3000 rpm for 7 min, the supernatant (70 μL/well) was transferred to another clean 96-well plate. OD 560 in each well was monitored by a microplate reader, and hemolysis was calculated using the following formula: […]

[6] = tested on: broad spectrum of microbes; assay: MIC, broth microdilution, across the strains tested; type: cell-based; conditions: E. coli, MRSA, P. aeruginosa (FIGS. 3G-I)
Description: as §2
as §3, with “Broth containing microbial cells alone was used as a positive control and broth without bacteria inoculation was used as a negative control. Each test was carried out in 3 replicates.” left out

[7] = tested on: HEK 293 human embryonic kidney cells; assay: Cell viability test (MTT cytotoxicity); type: cell-based; conditions: 48 h, no pH given
Description: Cell viability test. Cytotoxicity of different components was tested through MTT assays. HEK 293 human embryonic kidney cells were seeded onto a 96-well plate (1×10^4 cells/well) and cultured overnight. The cells were then treated with various polymers or PDCs with serial dilutions for 48 h and their viability was measured by a standard MTT assay. Data were collected by monitoring the difference between the absorbance at 560 nm and 650 nm using a GloMax-Multi Microplate Multimode Reader (Promega, Wis., USA).

## [H]/N=C(/N)N[C@H]1[C@H](O)[C@@H](O)[C@H](O[C@@H]2O[C@@H](C)[C@](O)(C=O)[C@H]2O[C@@H]2O[C@@H](CO)[C@H](O)[C@@H](O)[C@@H]2NC)[C@@H](N/C(N)=N\[H])[C@@H]1O [Streptomycin, streptomycin, reference compound]
MRSA biofilm
  biofilm remaining: more than 50%
P. aeruginosa ATCC 27853
  mice rescued (survival): 40%
E. coli ATCC 25922 [1]
  bactericidal effect / EB staining, in words: little EB infiltration at 3 h
E. coli biofilm
  biofilm remaining: more than 50%
P. aeruginosa biofilm
  biofilm reduced / removed: 75%
[2]; Pseudomonas aeruginosa, ATCC27853
  MIC: 16 µg/mL (≈ 27.5 µM)
[3]; Staphylococcus aureus
  MIC: 16 µg/mL (≈ 27.5 µM)
M. smegmatis (MC^2 155); Mycolicibacterium smegmatis, MC^2155
  MIC: 0.5 µg/mL (≈ 0.86 µM)
S. aureus (Newman); Staphylococcus aureus, NEWMAN
  MIC: 16 µg/mL (≈ 27.5 µM)
E. coli (ATCC 25922); Escherichia coli, ATCC25922
  MIC: 8 µg/mL (≈ 13.8 µM)
E. coli (DH5 alpha); Escherichia coli
  MIC: 8 µg/mL (≈ 13.8 µM)
E. coli ATCC 25922 [4]
  increase in MIC after 20 passages: 10 fold
[5]
  antibacterial efficacy on intracellular bacteria (CFU), in words: did not show much therapeutic efficacy

## Hex-Cys-Cys-DET2 polymer [Positively-charged polymer]
Human red blood cells
  hemolytic activity, in words: only induced hemolysis at a high level of 10 mg/mL

## Hex-Cys-Cys-DET-DMA [Neutralized polymer]
Human red blood cells
  hemolytic activity, in words: did not show any hemolytic activity

## Hex-Cys-Cys-DET-strep [Positively-charged PDC]
[6]
  effect of pH (6.0 vs 7.4) on MIC, in words: MICs were unaffected by pH variation
[7]
  HEK293 IC50: >2000 µg/mL
[2]
  MIC P. aeruginosa (ATCC 27853): 20 µg/mL
[3]
  MIC S. aureus (MRSA ATCC33591): 20 µg/mL
M. smegmatis (MC^2 155)
  MIC M. smegmatis (MC^2 155): 1.25 µg/mL
S. aureus (Newman)
  MIC S. aureus (Newman): 10 µg/mL
E. coli (ATCC 25922)
  MIC E. coli (ATCC 25922): 20 µg/mL
E. coli (DH5 alpha)
  MIC E. coli (DH5 alpha): 20 µg/mL
